Measurements from US20250230193A1, “CYCLIC COMPOUND HAVING SELECTIVE KRAS INHIBITORY EFFECT ON HRAS AND NRAS” (CHUGAI SEIYAKU KABUSHIKI KAISHA, priority 2022, published 2025).
Where a SMILES comes first, the peptide text is derived from it. Bridges are numbered along the chain shown (N, C = ends). [ ]: non-standard residue; d: D form. The star is where a group is joined. hPhe(3-Cl-4-CF3) = N[C@@H](CCc1ccc(C(F)(F)F)c(Cl)c1)C(=O)O; NPrPhe(4-CF3) = CCCN[C@@H](Cc1ccc(C(F)(F)F)cc1)C(=O)O; NMeGly(cPent) = CN[C@H](C(=O)O)C1CCCC1; Gly(cBu) = N[C@H](C(=O)O)C1CCC1; NMeD = CN[C@@H](CC(=O)O)C(=O)O; NMeL = CN[C@@H](CC(C)C)C(=O)O; Morpholide = C1CN(*)CCO1; NMeA = CN[C@@H](C)C(=O)O; Piperidide = C1CCN(*)CC1; Ac5c = NC1(C(=O)O)CCCC1; Aze = O=C(O)[C@@H]1CCN1; Sar = CNCC(=O)O

How the values were obtained:
[1] = biological target: GDP-bound HRAS wild-type protein (Homo sapiens, UniProt P01112); test: Binding to HRAS by surface plasmon resonance (SPR), Single Cycle Kinetics; settings: SPR; for HRAS/KRAS (ratio of KD value with respect to HRAS to KD value with respect to KRAS): GDP-bound HRAS wild-type vs GDP-bound KRAS wild-type
[2] = biological target: GDP-bound NRAS wild-type protein (Homo sapiens, UniProt P01111); test: Binding to NRAS by surface plasmon resonance (SPR), Single Cycle Kinetics; settings: SPR; for NRAS/KRAS (ratio of KD value with respect to NRAS to KD value with respect to KRAS): GDP-bound NRAS wild-type vs GDP-bound KRAS wild-type
Chain of GDP-bound NRAS wild-type protein (P01111 whole entry): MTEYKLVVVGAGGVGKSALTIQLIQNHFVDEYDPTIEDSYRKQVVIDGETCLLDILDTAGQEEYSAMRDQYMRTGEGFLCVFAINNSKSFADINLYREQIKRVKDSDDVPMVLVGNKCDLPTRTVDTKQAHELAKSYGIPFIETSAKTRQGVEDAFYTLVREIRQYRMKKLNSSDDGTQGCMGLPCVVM

Chain of GDP-bound HRAS wild-type protein (P01112 whole entry): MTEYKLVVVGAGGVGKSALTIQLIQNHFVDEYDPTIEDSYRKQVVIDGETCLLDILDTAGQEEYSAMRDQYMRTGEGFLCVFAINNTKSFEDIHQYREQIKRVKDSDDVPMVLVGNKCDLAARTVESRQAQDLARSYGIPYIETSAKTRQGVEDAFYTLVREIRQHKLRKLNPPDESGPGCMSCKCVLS

Compound | HRAS/KRAS (ratio of KD value with respect to HRAS to KD value with respect to KRAS) [1] | NRAS/KRAS (ratio of KD value with respect to NRAS to KD value with respect to KRAS) [2] | HRAS/KRAS (ratio of KD for GDP-bound HRAS wild-type to KD for KRAS) [1] | NRAS/KRAS (ratio of KD for GDP-bound NRAS wild-type to KD for KRAS) [2] | also measured
CC[C@H](C)[C@@H]1NC(=O)[C@H](CC)N(C)C(=O)C[C@@H](C(=O)N(C)C)N(C)C(=O)[C@H](C2CCCC2)N(C)C(=O)C2(CCC2)NC(=O)[C@@H]2C[C@H](OC)CN2C(=O)[C@H](CCc2cc(F)c(C(F)(F)F)c(F)c2)NC(=O)CN(C)C(=O)[C@H](Cc2ccc(C(F)(F)F)cc2)N2CC/C=C\C[C@@H](C2=O)N(C)C(=O)CN(C)C1=O [PP1128] | – | – | – | – | HRAS/KRAS (ratio of KD value with respect to HRAS to KD value with respect to KRAS) ([1]; KD ratio): A (a compound having 10 or more and less than 20 is denoted as A); NRAS/KRAS (ratio of KD value with respect to NRAS to KD value with respect to KRAS) ([2]; KD ratio): AA (a compound having 20 or more is denoted as AA)
CCO[C@@H]1C[C@H]2C(=O)NC3(CC(C)(C)C3)C(=O)N(C)[C@@H](C(CC)CC)C(=O)N(C)[C@H](C(=O)N(C)C)CC(=O)N(C)[C@@H](CC3CCC3)C(=O)N[C@@H]([C@@H](C)CC)C(=O)N(C)CC(=O)N(C)[C@H]3C/C=C\CCN(C3=O)[C@@H](Cc3ccc(C)cc3)C(=O)N(C)CC(=O)N[C@@H](CCc3ccc(C(F)(F)F)c(Cl)c3)C(=O)N2C1 [PP2156] | A (a compound having 10 or more and less than 20 is denoted as A) | AA (a compound having 20 or more is denoted as AA) | – | – | –
CCC[C@H]1C(=O)N[C@@H]([C@@H](C)CC)C(=O)N(C)CC(=O)N(C)[C@H]2C/C=C\CCN(C2=O)[C@@H](CC2CCC(F)(F)CC2)C(=O)N(C)CC(=O)N[C@@H](CCc2cc(F)c(C(F)(F)F)c(F)c2)C(=O)N2C[C@H](OCC)C[C@H]2C(=O)NC2(CC(C)(C)C2)C(=O)N(C)[C@@H](C(CC)CC)C(=O)N(C)[C@H](C(=O)N(C)C)CC(=O)N1C [PP2489] | A (a compound having 10 or more and less than 20 is denoted as A) | A (a compound having 10 or more and less than 20 is denoted as A) | – | – | –
CCCN1C(=O)[C@@H]2CCN2C(=O)[C@H](C)N(C)C(=O)[C@H]([C@@H](C)CC)NC(=O)[C@H](CC(C)C)N(C)C(=O)C[C@@H](C(=O)N2CCCCC2)N(C)C(=O)[C@H](C2CCCC2)N(C)C(=O)C2(CCCC2)NC(=O)[C@@H]2CCCN2C(=O)[C@H](CCc2ccc(C(F)(F)F)c(Cl)c2)NC(=O)CN(C)C(=O)[C@@H]1Cc1ccc(C(F)(F)F)cc1 [PP0180] ([NMeL]I[NMeA][Aze][NPrPhe(4-CF3)][Sar][hPhe(3-Cl-4-CF3)]P[Ac5c][NMeGly(cPent)][NMeD]-Piperidide; lactam N-11) | – | – | C (A compound having a KD ratio of 0.1 or more and less than 3 is denoted as C) | C (A compound having a KD ratio of 0.1 or more and less than 3 is denoted as C) | –
CCCN1C(=O)CN(C)C(=O)CN(C)C(=O)[C@H](C2CCC2)NC(=O)[C@H](CC(C)C)N(C)C(=O)C[C@@H](C(=O)N2CCOCC2)N(C)C(=O)[C@H](C2CCCC2)N(C)C(=O)C2(CCCC2)NC(=O)[C@@H]2CCCN2C(=O)[C@H](CCc2ccc(C(F)(F)F)c(Cl)c2)NC(=O)CN(C)C(=O)[C@@H]1Cc1ccc(C(F)(F)F)cc1 [PP0250] ([NMeL][Gly(cBu)][Sar][Sar][NPrPhe(4-CF3)][Sar][hPhe(3-Cl-4-CF3)]P[Ac5c][NMeGly(cPent)][NMeD]-Morpholide; lactam N-11) | – | – | C (A compound having a KD ratio of 0.1 or more and less than 3 is denoted as C) | B (a compound having 3 or more and less than 10 is denoted as B) | –
